In US9346798B2, “Dihydrobenzoxazine and tetrahydroquinoxaline sodium channel inhibitors” (AMGEN INC., priority 2012, dated 2016):

Experiments:
Assay type in all cases: cell-based
[1] = target: Nav 1.5 (Homo sapiens (Human), UniProt Q14524); assay: Nav 1.5 in vitro assay, IonWorks Quattro (IWQ) population patch-clamp; conditions: HEK 293 cells stably transfected with Nav 1.5; 26th pulse to -20 mV
[2] = target: T1, Nav 1.7 (Homo sapiens (Human), UniProt Q15858); assay: Nav 1.7 in vitro PX assay, PatchXpress whole cell voltage clamp; conditions: HEK 293 cells stably transfected with human Nav1.7; for IC50: partially inactivated state (20 to 50% inactivation)
T1 sequence (Q15858 whole entry): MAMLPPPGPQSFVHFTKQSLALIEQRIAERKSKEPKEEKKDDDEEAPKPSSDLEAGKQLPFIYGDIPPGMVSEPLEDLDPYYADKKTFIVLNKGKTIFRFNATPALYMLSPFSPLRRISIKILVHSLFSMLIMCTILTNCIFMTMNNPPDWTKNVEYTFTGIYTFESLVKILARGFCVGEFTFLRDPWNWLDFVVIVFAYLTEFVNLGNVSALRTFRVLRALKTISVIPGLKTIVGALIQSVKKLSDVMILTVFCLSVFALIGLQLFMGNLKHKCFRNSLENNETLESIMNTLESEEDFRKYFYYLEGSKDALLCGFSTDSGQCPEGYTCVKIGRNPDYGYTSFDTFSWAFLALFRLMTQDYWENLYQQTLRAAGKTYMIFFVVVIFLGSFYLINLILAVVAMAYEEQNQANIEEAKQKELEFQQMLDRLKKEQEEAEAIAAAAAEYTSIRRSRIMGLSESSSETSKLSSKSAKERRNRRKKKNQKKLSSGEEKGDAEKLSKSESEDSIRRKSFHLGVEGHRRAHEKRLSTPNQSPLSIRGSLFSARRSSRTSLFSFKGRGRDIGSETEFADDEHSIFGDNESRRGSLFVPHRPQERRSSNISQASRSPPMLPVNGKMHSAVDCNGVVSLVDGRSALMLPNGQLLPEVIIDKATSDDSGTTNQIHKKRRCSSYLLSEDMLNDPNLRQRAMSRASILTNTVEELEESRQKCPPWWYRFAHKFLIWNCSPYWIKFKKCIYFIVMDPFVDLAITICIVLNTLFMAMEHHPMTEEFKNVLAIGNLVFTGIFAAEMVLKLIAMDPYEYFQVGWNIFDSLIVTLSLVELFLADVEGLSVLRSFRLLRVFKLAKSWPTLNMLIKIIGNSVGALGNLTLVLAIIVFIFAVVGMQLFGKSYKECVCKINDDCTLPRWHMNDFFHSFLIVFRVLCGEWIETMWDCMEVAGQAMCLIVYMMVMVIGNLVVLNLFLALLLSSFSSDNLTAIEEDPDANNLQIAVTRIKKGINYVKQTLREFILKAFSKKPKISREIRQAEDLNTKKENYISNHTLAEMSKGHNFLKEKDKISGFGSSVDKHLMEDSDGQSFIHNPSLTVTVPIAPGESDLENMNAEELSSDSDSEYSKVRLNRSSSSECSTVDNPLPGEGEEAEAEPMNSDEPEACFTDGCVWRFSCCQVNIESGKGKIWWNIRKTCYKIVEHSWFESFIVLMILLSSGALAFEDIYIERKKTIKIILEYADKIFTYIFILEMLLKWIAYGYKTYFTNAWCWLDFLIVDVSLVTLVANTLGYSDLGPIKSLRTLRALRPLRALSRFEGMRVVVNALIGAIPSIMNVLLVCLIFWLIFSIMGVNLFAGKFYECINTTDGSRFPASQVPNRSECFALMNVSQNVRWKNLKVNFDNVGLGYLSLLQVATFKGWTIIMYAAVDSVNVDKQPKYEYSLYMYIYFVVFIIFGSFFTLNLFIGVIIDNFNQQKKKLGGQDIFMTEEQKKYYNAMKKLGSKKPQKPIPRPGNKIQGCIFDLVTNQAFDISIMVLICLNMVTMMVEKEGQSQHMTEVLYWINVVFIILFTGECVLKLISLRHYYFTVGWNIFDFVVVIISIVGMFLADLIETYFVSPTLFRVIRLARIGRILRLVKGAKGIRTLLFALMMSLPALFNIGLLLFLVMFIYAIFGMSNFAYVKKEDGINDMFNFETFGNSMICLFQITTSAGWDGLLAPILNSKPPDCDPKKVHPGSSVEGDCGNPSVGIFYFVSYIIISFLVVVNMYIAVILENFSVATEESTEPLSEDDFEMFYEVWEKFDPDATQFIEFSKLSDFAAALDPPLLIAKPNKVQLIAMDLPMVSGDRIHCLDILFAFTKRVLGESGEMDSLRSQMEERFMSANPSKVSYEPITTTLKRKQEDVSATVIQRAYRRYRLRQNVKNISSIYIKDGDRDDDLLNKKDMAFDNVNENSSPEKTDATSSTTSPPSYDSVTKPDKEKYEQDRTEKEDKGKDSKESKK
Method in brief: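 Partially inactivated channels (20–50% inactivation at holding potential) were probed on automated patch clamp in stably transfected HEK293 cells, stepping to −10 mV for 20 msec every 10 s (0.1 Hz).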

[3] = target: T1, Nav 1.7; assay: Nav 1.7 in vitro assay, IonWorks Quattro (IWQ) population patch-clamp; conditions: HEK 293 cells stably transfected with Nav 1.7; 26th pulse to -20 mV

Chain of Nav 1.5 (Q14524 whole entry): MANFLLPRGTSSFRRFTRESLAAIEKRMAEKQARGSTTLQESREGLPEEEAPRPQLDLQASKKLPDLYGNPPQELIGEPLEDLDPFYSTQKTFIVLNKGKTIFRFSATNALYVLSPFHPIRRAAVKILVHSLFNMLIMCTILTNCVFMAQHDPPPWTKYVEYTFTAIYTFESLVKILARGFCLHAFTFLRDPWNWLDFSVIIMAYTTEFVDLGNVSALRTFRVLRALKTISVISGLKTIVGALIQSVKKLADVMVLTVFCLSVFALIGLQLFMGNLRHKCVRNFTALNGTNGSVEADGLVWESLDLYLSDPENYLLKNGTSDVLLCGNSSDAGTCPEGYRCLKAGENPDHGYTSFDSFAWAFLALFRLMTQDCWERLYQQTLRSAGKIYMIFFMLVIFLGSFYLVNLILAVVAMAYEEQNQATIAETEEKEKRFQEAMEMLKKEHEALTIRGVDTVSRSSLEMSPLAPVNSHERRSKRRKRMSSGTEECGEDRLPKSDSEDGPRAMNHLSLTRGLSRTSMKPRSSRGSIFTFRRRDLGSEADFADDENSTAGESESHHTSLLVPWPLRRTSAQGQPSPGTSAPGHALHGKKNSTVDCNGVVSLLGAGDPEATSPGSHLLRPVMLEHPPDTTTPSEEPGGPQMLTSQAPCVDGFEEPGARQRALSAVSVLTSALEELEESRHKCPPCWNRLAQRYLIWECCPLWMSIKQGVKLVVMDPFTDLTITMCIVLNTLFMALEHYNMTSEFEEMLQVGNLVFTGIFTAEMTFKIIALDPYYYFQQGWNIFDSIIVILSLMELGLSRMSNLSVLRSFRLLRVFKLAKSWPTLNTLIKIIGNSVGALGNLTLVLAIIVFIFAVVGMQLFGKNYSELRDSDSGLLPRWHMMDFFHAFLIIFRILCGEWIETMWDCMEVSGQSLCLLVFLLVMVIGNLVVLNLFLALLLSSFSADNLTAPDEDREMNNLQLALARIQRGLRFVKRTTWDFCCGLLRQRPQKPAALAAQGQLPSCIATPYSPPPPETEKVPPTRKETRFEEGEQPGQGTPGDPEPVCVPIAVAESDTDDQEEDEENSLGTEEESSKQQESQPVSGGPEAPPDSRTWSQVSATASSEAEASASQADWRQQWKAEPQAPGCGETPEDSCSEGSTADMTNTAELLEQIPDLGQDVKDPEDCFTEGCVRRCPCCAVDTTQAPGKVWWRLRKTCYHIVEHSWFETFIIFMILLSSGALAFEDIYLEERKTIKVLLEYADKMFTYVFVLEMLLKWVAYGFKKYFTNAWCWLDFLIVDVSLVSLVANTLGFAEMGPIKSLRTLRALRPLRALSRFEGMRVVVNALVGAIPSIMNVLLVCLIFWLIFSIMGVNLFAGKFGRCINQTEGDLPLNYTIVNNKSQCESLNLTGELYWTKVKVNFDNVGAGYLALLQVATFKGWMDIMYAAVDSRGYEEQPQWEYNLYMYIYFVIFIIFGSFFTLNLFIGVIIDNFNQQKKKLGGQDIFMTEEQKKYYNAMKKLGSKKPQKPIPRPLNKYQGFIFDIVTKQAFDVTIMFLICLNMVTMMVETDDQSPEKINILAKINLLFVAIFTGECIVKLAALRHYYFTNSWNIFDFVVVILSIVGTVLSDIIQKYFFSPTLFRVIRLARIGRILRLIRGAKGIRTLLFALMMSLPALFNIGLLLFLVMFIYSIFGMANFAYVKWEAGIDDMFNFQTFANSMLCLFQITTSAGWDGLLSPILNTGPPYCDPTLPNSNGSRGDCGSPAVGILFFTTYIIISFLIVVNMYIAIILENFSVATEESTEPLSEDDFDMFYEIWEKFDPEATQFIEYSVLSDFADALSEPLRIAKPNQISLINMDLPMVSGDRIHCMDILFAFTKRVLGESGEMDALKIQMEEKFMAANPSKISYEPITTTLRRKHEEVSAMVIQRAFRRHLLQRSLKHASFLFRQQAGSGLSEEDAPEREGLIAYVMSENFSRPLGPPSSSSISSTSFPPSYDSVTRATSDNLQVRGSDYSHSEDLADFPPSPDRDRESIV

Row | SMILES | IC50 [2] [nM] | IC50 [3] [nM] | inhibition at 4.9 µM ([2]; HEK293, values marked *, 4.9 μM, read-out: Nav 1.7 PX percent inhibition at 4.9 μM) [%] | IC50 [1] [nM]
1 | COc1ccc(N2CCOc3cc(S(=O)(=O)Nc4ncns4)ccc32)cc1 [Example 37, 4-(4-Methoxyphenyl)-N-(1,2,4-Thiadiazol-5-Yl)-3,4-Dihydro-2H-Benzo[B][1,4]Oxazine-7-Sulfonamide] | 2200 | 207 |  | > 10000
2 | O=S(=O)(Nc1nccs1)c1ccc2c(c1)OCCN2c1cccc(C(F)(F)F)c1 [Example 173, N-(Thiazol-2-Yl)-4-(3-(Trifluoromethyl)Phenyl)-3,4-Dihydro-2H-Benzo[B][1,4]Oxazine-7-Sulfonamide 2,2,2-Trifluoroacetate] | 1650 | 236 |  | > 10000
3 | O=S(=O)(Nc1ccncn1)c1ccc2c(c1)OCCN2c1ccc(C(F)(F)F)cc1Br [Example 47, 4-(2-Bromo-4-(Trifluoromethyl)Phenyl)-N-(Pyrimidin-4-Yl)-3,4-Dihydro-2H-Benzo[B][1,4]Oxazine-7-Sulfonamide] | 303 | 14.5 |  | 7930
4 | N#Cc1cc(C(F)(F)F)ccc1N1CCOc2cc(S(=O)(=O)Nc3nccs3)c(F)cc21 [Example 215, 4-(2-Cyano-4-(Trifluoromethyl)Phenyl)-6-Fluoro-N-(Thiazol-2-Yl)-3,4-Dihydro-2H-Benzo[B][1,4]Oxazine-7-Sulfonamide] | 183 | 9.86 |  | 203
5 | Cc1ccc(F)c(N2CCOc3cc(S(=O)(=O)Nc4nccs4)ccc32)c1 [Example 80, 4-(2-Fluoro-5-Methylphenyl)-N-(Thiazol-2-Yl)-3,4-Dihydro-2H-Benzo[B][1,4]Oxazine-7-Sulfonamide 2,2,2-Trifluoroacetate] | 340 | 126 |  | 5640
6 | Cc1cccc(N2CCOc3cc(S(=O)(=O)Nc4nccs4)ccc32)c1 [Example 75, N-(Thiazol-2-Yl)-4-(M-Tolyl)-3,4-Dihydro-2H-Benzo[B][1,4]Oxazine-7-Sulfonamide 2,2,2-Trifluoroacetate] | 706 | 182 |  | 7370
7 | COc1cc(C#N)ccc1N1CC(C)Oc2cc(S(=O)(=O)Nc3nccs3)ccc21 (racemic) [Example 106, 4-(4-cyano-2-methoxyphenyl)-2-methyl-N-(thiazol-2-yl)-3,4-dihydro-2H-benzo[b][1,4]oxazine-7-sulfonamide] | 288 | 42.5 |  | > 10000
8 | Cc1nsc(NS(=O)(=O)c2ccc3c(c2)OCCN3c2ccc(C(F)(F)F)cc2Cl)n1 [Example 10, 4-(2-Chloro-4-(Trifluoromethyl)Phenyl)-N-(3-Methyl-1,2,4-Thiadiazol-5-Yl)-3,4-Dihydro-2H-Benzo[B][1,4]Oxazine-7-Sulfonamide] | 6750 | 4610 |  | > 10000
9 | COc1cc(C#N)ccc1N1CCOc2cc(S(=O)(=O)Nc3nccs3)ccc21 [Example 181, 4-(4-Cyano-2-Methoxyphenyl)-N-(Thiazol-2-Yl)-3,4-Dihydro-2H-Benzo[B][1,4]Oxazine-7-Sulfonamide 2,2,2-Trifluoroacetate] | 175 | 7.5 |  | > 10000
10 | CN1CC=C(c2cc(C(F)(F)F)ccc2N2CCOc3cc(S(=O)(=O)Nc4ncns4)ccc32)CC1 [Example 22, 4-(2-(1-Methyl-1,2,3,6-Tetrahydropyridin-4-Yl)-4-(Trifluoromethyl)Phenyl)-N-(1,2,4-Thiadiazol-5-Yl)-3,4-Dihydro-2H-Benzo[B][1,4]Oxazine-7-Sulfonamide 2,2,2-Trifluoroacetate] | 134 | 10.5 |  | > 10000
11 | Cc1ccc(Cl)c(N2CCOc3cc(S(=O)(=O)Nc4nccs4)ccc32)c1 [Example 67, 4-(2-Chloro-5-Methylphenyl)-N-(Thiazol-2-Yl)-3,4-Dihydro-2H-Benzo[B][1,4]Oxazine-7-Sulfonamide 2,2,2-Trifluoroacetate] | 442 | 381 |  | 5330
12 | Cc1cc(OC(F)F)cnc1N1CCOc2cc(S(=O)(=O)Nc3nccs3)ccc21 [Example 146, 4-(5-(Difluoromethoxy)-3-methylpyridin-2-yl)-N-(thiazol-2-yl)-3,4-dihydro-2H-benzo[b][1,4]oxazine-7-sulfonamide] | 4730 | 416 |  | 5220
13 | CN1CCN(c2ccc(C(F)(F)F)cc2Cl)c2ccc(S(=O)(=O)Nc3ncns3)cc21 [Example 19, 1-(2-Chloro-4-(Trifluoromethyl)Phenyl)-4-Methyl-N-(1,2,4-Thiadiazol-5-Yl)-1,2,3,4-Tetrahydroquinoxaline-6-Sulfonamide] | 4890 | 1180 |  | > 10000
14 | O=S(=O)(Nc1nccs1)c1ccc2c(c1)OCCN2c1ccccc1Cl [Example 46, 4-(2-Chlorophenyl)-N-(Thiazol-2-Yl)-3,4-Dihydro-2H-Benzo[B][1,4]Oxazine-7-Sulfonamide] | 1080 | 165 |  | > 10000
15 | O=S(=O)(Nc1nccs1)c1ccc2c(c1)OCCN2c1ccc(OCC(F)(F)F)cc1 [Example 113, N-(thiazol-2-yl)-4-(4-(2,2,2-trifluoroethoxy)phenyl)-3,4-dihydro-2H-benzo[b][1,4]oxazine-7-sulfonamide] | 2720 | 891 |  | 3370

Continued by falling IC50 [3], values first:

Row | IC50 [2] [nM] | IC50 [3] [nM] | inhibition at 4.9 µM ([2]; HEK293, values marked *, 4.9 μM, read-out: Nav 1.7 PX percent inhibition at 4.9 μM) [%] | SMILES | IC50 [1] [nM]
16 |  | 1700 | 39.2 | Cc1cc(F)cnc1N1CCOc2cc(S(=O)(=O)Nc3nccs3)ccc21 [Example 110, 4-(5-Fluoro-3-methylpyridin-2-yl)-N-(thiazol-2-yl)-3,4-dihydro-2H-benzo[b][1,4]oxazine-7-sulfonamide] | > 10000
17 | 12200 | 1660 |  | CC(C)c1ccc(N2CCOc3cc(S(=O)(=O)Nc4nccs4)ccc32)cc1 [Example 112, 4-(4-Isopropylphenyl)-N-(thiazol-2-yl)-3,4-dihydro-2H-benzo[b][1,4]oxazine-7-sulfonamide] | > 10000
18 | 11500 | 860 |  | CCOc1ccc(N2CCOc3cc(S(=O)(=O)Nc4nccs4)ccc32)cn1 [Example 138, 4-(6-Ethoxypyridin-3-yl)-N-(thiazol-2-yl)-3,4-dihydro-2H-benzo[b][1,4]oxazine-7-sulfonamide] | 3830
19 | 2900 | 615 |  | O=S(=O)(Nc1nccs1)c1ccc2c(c1)OCCN2c1ccc(C(F)(F)F)nc1 [Example 122, N-(thiazol-2-yl)-4-(6-(trifluoromethyl)pyridin-3-yl)-3,4-dihydro-2H-benzo[b][1,4]oxazine-7-sulfonamide] | 7030
20 | 1340 | 451 |  | Cc1cc(OC(F)(F)F)ccc1N1CCOc2cc(S(=O)(=O)Nc3nccs3)ccc21 [Example 140, 4-(2-Methyl-4-(trifluoromethoxy)phenyl)-N-(thiazol-2-yl)-3,4-dihydro-2H-benzo[b][1,4]oxazine-7-sulfonamide] | 6600
21 | 11800 | 235 |  | COc1ncc(C(F)(F)F)cc1N1CCOc2cc(S(=O)(=O)Nc3nccs3)ccc21 [Example 145, 4-(2-Methoxy-5-(trifluoromethyl)pyridin-3-yl)-N-(thiazol-2-yl)-3,4-dihydro-2H-benzo[b][1,4]oxazine-7-sulfonamide] | 7380
22 | 1390 | 202 |  | N#Cc1cc(N2CCOc3cc(S(=O)(=O)Nc4nccs4)ccc32)ccc1F [Example 175, 4-(3-Cyano-4-Fluorophenyl)-N-(Thiazol-2-Yl)-3,4-Dihydro-2H-Benzo[B][1,4]Oxazine-7-Sulfonamide 2,2,2-Trifluoroacetate] | 5080
23 | 1540 | 121 |  | Cn1nccc1-c1cc(C(F)(F)F)ccc1N1CCOc2cc(S(=O)(=O)Nc3nccs3)ccc21 [Example 42, 4-(2-(1-Methyl-1H-Pyrazol-5-Yl)-4-(Trifluoromethyl)Phenyl)-N-(Thiazol-2-Yl)-3,4-Dihydro-2H-Benzo[B][1,4]Oxazine-7-Sulfonamide] | > 10000
24 | 640 | 111 |  | O=S(=O)(Nc1nccs1)c1ccc2c(c1)OCCN2c1cccc(Cl)c1 [Example 41, 4-(3-Chlorophenyl)-N-(Thiazol-2-Yl)-3,4-Dihydro-2H-Benzo[B][1,4]Oxazine-7-Sulfonamide] | 4930
25 | 684 | 103 |  | O=S(=O)(Nc1nccs1)c1ccc2c(c1)OCCN2c1ccc(Cl)cc1OC(F)F [Example 193, 4-(4-Chloro-2-(Difluoromethoxy)Phenyl)-N-(Thiazol-2-Yl)-3,4-Dihydro-2H-Benzo[B][1,4]Oxazine-7-Sulfonamide 2,2,2-Trifluoroacetate] | 1560
26 | 415 | 69.5 |  | COc1ccc(OC)c(N2CCOc3cc(S(=O)(=O)Nc4nccs4)ccc32)c1 [Example 139, 4-(2,5-Dimethoxyphenyl)-N-(thiazol-2-yl)-3,4-dihydro-2H-benzo[b][1,4]oxazine-7-sulfonamide] | 7040
27 | 381 | 26 |  | O=S(=O)(Nc1cccnn1)c1ccc2c(c1)OCCN2c1ccc(C(F)(F)F)cc1C1=CCNCC1 [Example 87, N-(Pyridazin-3-Yl)-4-(2-(1,2,3,6-Tetrahydropyridin-4-Yl)-4-(Trifluoromethyl)Phenyl)-3,4-Dihydro-2H-Benzo[B][1,4]Oxazine-7-Sulfonamide] | > 10000
28 | 146 | 12.3 |  | O=S(=O)(Nc1ncns1)c1ccc2c(c1)OCCN2c1ccc(C(F)(F)F)cc1C1=CCOCC1 [Example 25, 4-(2-(3,6-Dihydro-2H-Pyran-4-Yl)-4-(Trifluoromethyl)Phenyl)-N-(1,2,4-Thiadiazol-5-Yl)-3,4-Dihydro-2H-Benzo[B][1,4]Oxazine-7-Sulfonamide] | 214
